According to ChEMBL document CHEMBL1159188, “Identification of novel (isoxazole)methylene-1-azabicyclic compounds with high affinity for the central nicotinic cholinergic receptor” (Bioorg Med Chem Lett, 1997):
pIC50: −log10 of the molar value.

Key:
[1] = Inhibitory concentration required for in vitro binding affinity to Nicotinic acetylcholine receptor alpha4-beta2 expressed on cell line sf 21 by using [3H]-MCC
[2] = biological target: T1, Neuronal acetylcholine receptor; alpha3/beta2 (Homo sapiens, UniProt P17787+P32297); experiment: Inhibitory concentration required for in vitro binding affinity to Nicotinic acetylcholine receptor alpha3-beta2 expressed on cell line sf 9 by using [3H]-MCC; parameters: species or system Rattus norvegicus
T1 sequence (P17787 whole entry): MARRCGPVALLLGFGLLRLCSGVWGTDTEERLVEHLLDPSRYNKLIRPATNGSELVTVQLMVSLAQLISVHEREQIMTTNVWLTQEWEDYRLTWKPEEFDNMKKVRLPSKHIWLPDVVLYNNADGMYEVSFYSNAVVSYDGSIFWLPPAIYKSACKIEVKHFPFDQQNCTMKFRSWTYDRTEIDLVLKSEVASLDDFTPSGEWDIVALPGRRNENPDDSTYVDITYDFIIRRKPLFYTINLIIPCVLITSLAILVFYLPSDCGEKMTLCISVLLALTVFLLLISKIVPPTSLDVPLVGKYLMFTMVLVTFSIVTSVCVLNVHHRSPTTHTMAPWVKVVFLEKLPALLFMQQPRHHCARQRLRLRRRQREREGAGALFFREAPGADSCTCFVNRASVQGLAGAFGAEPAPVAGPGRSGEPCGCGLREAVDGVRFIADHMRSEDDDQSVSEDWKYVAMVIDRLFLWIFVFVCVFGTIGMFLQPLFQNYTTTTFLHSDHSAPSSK
T1 sequence (P32297 whole entry): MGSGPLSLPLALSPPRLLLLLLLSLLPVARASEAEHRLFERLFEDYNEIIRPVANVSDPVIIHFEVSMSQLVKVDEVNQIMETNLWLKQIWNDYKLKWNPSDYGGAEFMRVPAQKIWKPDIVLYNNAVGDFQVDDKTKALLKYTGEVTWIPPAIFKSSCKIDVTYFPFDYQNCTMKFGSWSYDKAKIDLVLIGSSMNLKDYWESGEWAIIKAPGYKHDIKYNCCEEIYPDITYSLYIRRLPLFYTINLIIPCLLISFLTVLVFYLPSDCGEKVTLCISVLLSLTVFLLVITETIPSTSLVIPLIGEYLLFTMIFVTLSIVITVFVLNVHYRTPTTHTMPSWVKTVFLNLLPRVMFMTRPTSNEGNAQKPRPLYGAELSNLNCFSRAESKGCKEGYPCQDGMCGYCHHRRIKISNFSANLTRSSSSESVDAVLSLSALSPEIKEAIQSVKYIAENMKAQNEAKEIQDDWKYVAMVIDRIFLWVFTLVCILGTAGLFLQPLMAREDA

[3] = biological target: Neuronal acetylcholine receptor; experiment: Inhibitory concentration required for in vitro binding affinity to cholinergic central Nicotinic acetylcholine receptor on rat brain cortex by using [3H]MCC
[4] = biological target: Muscarinic acetylcholine receptor; experiment: Inhibitory concentration required for in vitro binding affinity to cholinergic central muscarinic receptor on rat brain cortex by using [3H]OXO-M
[5] = test system: Rattus norvegicus; experiment: Compound was tested in vivo against effective nicotinic agonistic activity in rat; format: functional
[6] = organism: Rattus norvegicus; experiment: The compound was tested for inducing [3H]dopamine release from striatal slices at 10 uM nicotine; format: functional
[7] = organism: Xenopus sp.; experiment: Compound was tested for inducing stimulation of current response in Xenopus oocytes (alpha3-beta2) at 30 uM; format: functional, frog
[8] = organism: Rattus norvegicus; experiment: The compound was tested for inducing [3H]dopamine release from striatal slices at 1 uM nicotine; format: functional
[9] = test system: Rattus norvegicus; experiment: Compound was tested in vivo against effective nicotinic agonistic activity in rat when administered s.c.; format: functional; conditions: sc
[10] = organism: Rattus norvegicus; experiment: Compound was tested for inducing [3H]-dopamine release from striatal slices at 10 uM nicotine; format: functional
[11] = organism: Xenopus sp.; experiment: Compound was tested for inducing stimulation of current response in Xenopus oocytes (alpha4-beta2) at 1 uM; format: functional, frog
[12] = test system: Mus musculus; experiment: Compound was tested in vivo for exploratory locomotor activity in mice after subcutaneous administration; format: functional; conditions: sc
[13] = Inhibitory concentration required for in vitro binding affinity to Nicotinic acetylcholine receptor alpha4-beta2 expressed on cell line Sf 21 by using [3H]MCC
[14] = test system: Mus musculus; experiment: Compound was tested in vivo for exploratory locomotor activity in mice after peroral administration; format: functional; conditions: po
[15] = biological target: T1, Neuronal acetylcholine receptor; alpha3/beta2; experiment: Inhibitory concentration required for in vitro binding affinity to Nicotinic acetylcholine receptor alpha3-beta2 expressed on cell line Sf 9 by using [3H]MCC; parameters: species or system Rattus norvegicus
[16] = organism: Rattus norvegicus; experiment: Compound was tested for inducing [3H]dopamine release from striatal slices at 1 uM nicotine; format: functional
[17] = Inhibitory concentration required for in vitro binding affinity to Nicotinic acetylcholine receptor alpha4-beta2 expressed on cell line sf 21 by using [3H]MCC
[18] = test system: Rattus norvegicus; experiment: The compound was tested in vivo against effective nicotinic agonistic activity in rat; format: functional
[19] = test system: Rattus norvegicus; experiment: The compound was tested in vivo against effective nicotinic agonistic activity in rat when administered s.c.; format: functional; conditions: sc

SMILES	pIC50 [1]	pIC50 [2]	pIC50 [3]	IC50 [4]	Activity [5]	Activity [6]	Response [7]	Activity [8]	ED50 [9]	Activity [10]	Response [11]	ED50 [12]	pIC50 [13]	ED50 [14]	pIC50 [15]	Activity [16]	pIC50 [17]	Activity [18]	ED50 [19]
Cc1cc(C=C2CN3CCCC2C3)on1 (stereo not drawn)	7.39	6.93	7.07	1700 nM	–	–	–	–	–	–	–	–	–	–	–	–	–	–	–
Cc1cc(/C=C2/CN3CCC2C3)on1 (stereo not drawn)	8.19	7.85	7.59	2800 nM	62%	46%	38%	17%	0.2 mg/kg	–	–	–	–	–	–	–	–	–	–
Cc1cc(/C=C2\CN3CCC2C3)on1 (stereo not drawn)	–	–	7.64	1200 nM	63%	–	51%	–	0.5 mg/kg	80%	171%	4.1 mg/kg	7.96	2 mg/kg	7.82	38%	–	–	–
Cc1cc(/C=C2/CN3CCC2CC3)on1	–	6.07	–	1500 nM	–	–	–	–	–	–	–	–	–	–	–	–	6.54	–	–
Cc1cc(/C=C2\CN3CCC2CC3)on1	8.85	8.72	8.47	1000 nM	–	68%	135%	51%	–	–	300%	0.4 mg/kg	–	2.4 mg/kg	–	–	–	60%	0.1 mg/kg
Cc1cc(/C=C2\CN3CCCC2C3)on1 (stereo not drawn)	7.59	6.66	6.77	950 nM	–	–	–	–	–	–	–	–	–	–	–	–	–	–	–
Cc1cc([C@@H]2CCCN2C)on1 [ABT-418]	7.43	7.21	–	–	72%	66%	40%	5%	0.2 mg/kg	–	24%	10 mg/kg	–	72 mg/kg	–	–	–	–	–
CN1CCC[C@H]1c1cccnc1 [NICOTINE]	8.38	–	–	–	–	180%	100%	100%	–	–	100%	0.3 mg/kg	–	> 9 mg/kg	–	–	–	96%	0.04 mg/kg
